Reference: US4156724A, “N-acylamino-alpha-arylacetamido cephalosporins and antibacterial compositions and methods containing them” (Sumitomo Chemical Company, Limited, priority 1974, dated 1979)
In brackets after ≈: the same amount, converted by molar mass.

What was measured:
Format in all cases: cell-based
[1] = system: Staphylococcus aureus FS 289; assay: Minimum Inhibitory Concentration, Staphylococcus aureus FS 289; details: FS289; Staphylococcus aureus FS 289, strain resistant to penicillin; read-out: Minimum Inhibitory Concentration
Method: (§1) anti-microbial activity tests were carried out on the compounds obtained in the Examples.
*Staphylococcus aureus FS 289: strain resistant to penicillin

[2] = system: Proteus vulgaris HX 19; assay: Minimum Inhibitory Concentration, Proteus vulgaris HX 19; details: HX19; Proteus vulgaris HX 19; read-out: Minimum Inhibitory Concentration
Method: as §1

[3] = system: Serratia No. 72; assay: Minimum Inhibitory Concentration, Serratia No. 72
Method: as §1

[4] = system: Klebsiella pneumoniae 602; assay: Minimum Inhibitory Concentration, Klebsiella pneumoniae 602; details: Klebsiella pneumoniae, 602, Klebsiella pneumoniae 602; read-out: Minimum Inhibitory Concentration
Method: as §1

[5] = system: Staphylococcus aureus 209 P; assay: Minimum Inhibitory Concentration, Staphylococcus aureus 209 P; details: Staphylococcus aureus 209 P; read-out: Minimum Inhibitory Concentration
Method: as §1

[6] = system: Pseudomonas aeruginosa 104; assay: Minimum Inhibitory Concentration, Pseudomonas aeruginosa 104; details: Pseudomonas aeruginosa 104; read-out: Minimum Inhibitory Concentration
Method: as §1

[7] = system: Escherichia coli NIHJ; assay: Minimum Inhibitory Concentration, Escherichia coli NIHJ; details: Escherichia coli NIHJ; read-out: Minimum Inhibitory Concentration
Method: as §1

[8] = system: Enterobacter aerogeneus No. 75; assay: Minimum Inhibitory Concentration, Enterobacter aerogeneus No. 75; details: Enterobacter aerogeneus No. 75; read-out: Minimum Inhibitory Concentration
Method: as §1

SMILES	MIC [1] [µg/mL]	MIC [2] [µg/mL]	MIC [3] [µg/mL]	MIC [4] [µg/mL]	MIC [5] [µg/mL]	MIC [6] [µg/mL]	MIC [7] [µg/mL]	MIC [8] [µg/mL]
CNc1nnc(SCC2=C(C(=O)O)N3C(=O)C(NC(=O)[C@H](NC(=O)c4cnc5cccnc5c4O)c4ccc(O)cc4)C3SC2)s1 (stereo partly drawn) [Example 152]	6.25 (≈ 9.18 µM)	0.2 (≈ 0.294 µM)	12.5 (≈ 18.4 µM)	1.56 (≈ 2.29 µM)	0.78 (≈ 1.15 µM)	3.13 (≈ 4.6 µM)	3.13 (≈ 4.6 µM)	6.25 (≈ 9.18 µM)
CSc1ccc2ncc(C(=O)N[C@@H](C(=O)NC3C(=O)N4C(C(=O)O)=C(CSc5nnc(CN)s5)CSC34)c3ccc(O)cc3)c(O)c2n1 (stereo partly drawn) [Example 153]	6.25 (≈ 8.6 µM)	0.39 (≈ 0.537 µM)	25 (≈ 34.4 µM)	3.13 (≈ 4.31 µM)	0.78 (≈ 1.07 µM)	6.25 (≈ 8.6 µM)	3.13 (≈ 4.31 µM)	6.25 (≈ 8.6 µM)
Cn1nnnc1SCC1=C(C(=O)O)N2C(=O)C(NC(=O)[C@H](NC(=O)c3cnc4cncnc4c3O)c3ccc(O)cc3)C2SC1 (stereo partly drawn) [Example 154]	12.5 (≈ 19.2 µM)	0.39 (≈ 0.599 µM)	12.5 (≈ 19.2 µM)	6.25 (≈ 9.61 µM)	0.78 (≈ 1.2 µM)	3.13 (≈ 4.81 µM)	3.13 (≈ 4.81 µM)	6.25 (≈ 9.61 µM)
O=C(O)C1=C(CSc2nnc(CO)s2)CSC2C(NC(=O)C(NC(=O)c3cnc4cncnc4c3O)c3cccc(O)c3)C(=O)N12 (stereo not drawn) [Example 155]	12.5 (≈ 18.3 µM)	0.78 (≈ 1.14 µM)	12.5 (≈ 18.3 µM)	6.25 (≈ 9.15 µM)	0.78 (≈ 1.14 µM)	3.13 (≈ 4.58 µM)	3.13 (≈ 4.58 µM)	6.25 (≈ 9.15 µM)
Cc1nnc(SCC2=C(C(=O)O)N3C(=O)C(NC(=O)C(NC(=O)c4cnc5nc(N(C)C)ncc5c4O)c4ccc(O)c(O)c4)C3SC2)s1 (stereo not drawn) [Example 156]	12.5 (≈ 17.2 µM)	0.78 (≈ 1.07 µM)	50 (≈ 68.9 µM)	6.25 (≈ 8.61 µM)	1.56 (≈ 2.15 µM)	6.25 (≈ 8.61 µM)	6.25 (≈ 8.61 µM)	12.5 (≈ 17.2 µM)
COc1cc(C(NC(=O)c2cnc3cccnc3c2O)C(=O)NC2C(=O)N3C(C(=O)O)=C(CSc4nnc(CO)s4)CSC23)ccc1O (stereo not drawn) [Example 157]	12.5 (≈ 17.6 µM)	0.2 (≈ 0.281 µM)	25 (≈ 35.1 µM)	3.13 (≈ 4.4 µM)	1.56 (≈ 2.19 µM)	6.25 (≈ 8.78 µM)	3.13 (≈ 4.4 µM)	6.25 (≈ 8.78 µM)
Cn1nnnc1SCC1=C(C(=O)O)N2C(=O)C(NC(=O)C(NC(=O)c3cnc4scnc4c3O)c3ccc(O)cc3)C2SC1 (stereo not drawn) [Example 158]	12.5 (≈ 19.1 µM)	0.39 (≈ 0.595 µM)	25 (≈ 38.1 µM)	1.56 (≈ 2.38 µM)	0.39 (≈ 0.595 µM)	6.25 (≈ 9.53 µM)	6.25 (≈ 9.53 µM)	12.5 (≈ 19.1 µM)
Cn1nnnc1SCC1=C(C(=O)O)N2C(=O)C(NC(=O)C(NC(=O)c3cnc4sccc4c3O)c3ccc(O)cc3)C2SC1 (stereo not drawn) [Example 159]	12.5 (≈ 19.1 µM)	0.78 (≈ 1.19 µM)	50 (≈ 76.4 µM)	3.13 (≈ 4.78 µM)	0.39 (≈ 0.596 µM)	6.25 (≈ 9.55 µM)	6.25 (≈ 9.55 µM)	12.5 (≈ 19.1 µM)
CSc1nc(O)c2c(O)c(C(=O)NC(C(=O)NC3C(=O)N4C(C(=O)O)=C(CSc5nnnn5C)CSC34)c3ccc(O)cc3)cnc2n1 (stereo not drawn) [Example 160]	12.5 (≈ 17.5 µM)	1.56 (≈ 2.19 µM)	50 (≈ 70.2 µM)	6.25 (≈ 8.77 µM)	0.78 (≈ 1.09 µM)	12.5 (≈ 17.5 µM)	12.5 (≈ 17.5 µM)	12.5 (≈ 17.5 µM)
Cc1cc(C(NC(=O)c2cnc3cccnc3c2O)C(=O)NC2C(=O)N3C(C(=O)O)=C(CSc4ccc(O)nn4)CSC23)ccc1O (stereo not drawn) [Example 161]	12.5 (≈ 18.5 µM)	0.39 (≈ 0.577 µM)	50 (≈ 74 µM)	3.13 (≈ 4.63 µM)	0.78 (≈ 1.15 µM)	6.25 (≈ 9.25 µM)	6.25 (≈ 9.25 µM)	12.5 (≈ 18.5 µM)
CSc1ncc2c(O)c(C(=O)NC(C(=O)NC3C(=O)N4C(C(=O)O)=C(CSc5nnnn5C)CSC34)c3cccc(O)c3)cnc2n1 (stereo not drawn) [Example 162]	12.5 (≈ 17.9 µM)	0.78 (≈ 1.12 µM)	50 (≈ 71.8 µM)	6.25 (≈ 8.97 µM)	1.56 (≈ 2.24 µM)	6.25 (≈ 8.97 µM)	12.5 (≈ 17.9 µM)	25 (≈ 35.9 µM)
Cn1nnnc1SCC1=C(C(=O)O)N2C(=O)C(NC(=O)C(NC(=O)c3cnc4nc(N5CCNCC5)ncc4c3O)c3ccc(O)cc3)C2SC1 (stereo not drawn) [Example 163]	12.5 (≈ 17 µM)	0.39 (≈ 0.531 µM)	50 (≈ 68 µM)	6.25 (≈ 8.51 µM)	1.56 (≈ 2.12 µM)	6.25 (≈ 8.51 µM)	12.5 (≈ 17 µM)	25 (≈ 34 µM)
COc1ccc2ncc(C(=O)NC(C(=O)NC3C(=O)N4C(C(=O)O)=C(CSc5nnnn5C)CSC34)c3cccc(O)c3)c(O)c2n1 (stereo not drawn) [Example 164]	6.25 (≈ 9.2 µM)	0.2 (≈ 0.294 µM)	12.5 (≈ 18.4 µM)	1.56 (≈ 2.3 µM)	0.78 (≈ 1.15 µM)	3.13 (≈ 4.6 µM)	3.13 (≈ 4.6 µM)	3.13 (≈ 4.6 µM)
COc1ccc2ncc(C(=O)NC(C(=O)NC3C(=O)N4C(C(=O)O)=C(CSc5nnc(CO)s5)CSC34)c3ccc(O)cc3)c(O)c2n1 (stereo not drawn) [Example 165]	6.25 (≈ 8.78 µM)	0.2 (≈ 0.281 µM)	12.5 (≈ 17.6 µM)	3.13 (≈ 4.4 µM)	0.78 (≈ 1.1 µM)	3.13 (≈ 4.4 µM)	3.13 (≈ 4.4 µM)	6.25 (≈ 8.78 µM)
CN(C)c1ccc2ncc(C(=O)NC(C(=O)NC3C(=O)N4C(C(=O)O)=C(CSc5nnnn5C)CSC34)c3ccc(O)cc3)c(O)c2n1 (stereo not drawn) [Example 166]	6.25 (≈ 9.02 µM)	0.2 (≈ 0.289 µM)	12.5 (≈ 18 µM)	1.56 (≈ 2.25 µM)	0.78 (≈ 1.13 µM)	3.13 (≈ 4.52 µM)	3.13 (≈ 4.52 µM)	3.13 (≈ 4.52 µM)
Cn1nnnc1SCC1=C(C(=O)O)N2C(=O)C(NC(=O)C(NC(=O)c3cnc4cccnc4c3O)c3ccc(O)c(O)c3)C2SC1 (stereo not drawn) [Example 167]	6.25 (≈ 9.39 µM)	0.2 (≈ 0.3 µM)	12.5 (≈ 18.8 µM)	1.56 (≈ 2.34 µM)	1.56 (≈ 2.34 µM)	3.13 (≈ 4.7 µM)	1.56 (≈ 2.34 µM)	3.13 (≈ 4.7 µM)
Cc1ccc2c(O)c(C(=O)NC(C(=O)NC3C(=O)N4C(C(=O)O)=C(CSc5nnc(C)s5)CSC34)c3cccc(O)c3)cnc2n1 (stereo not drawn) [Example 168]	12.5 (≈ 18.4 µM)	0.78 (≈ 1.15 µM)	50 (≈ 73.6 µM)	6.25 (≈ 9.19 µM)	1.56 (≈ 2.29 µM)	12.5 (≈ 18.4 µM)	12.5 (≈ 18.4 µM)	25 (≈ 36.8 µM)
O=C(O)C1=C(CSc2cnn[nH]2)CSC2C(NC(=O)C(NC(=O)c3cnc4cccnc4c3O)c3cccc(O)c3)C(=O)N12 (stereo not drawn) [Example 169]	6.25 (≈ 9.85 µM)	0.1 (≈ 0.158 µM)	25 (≈ 39.4 µM)	1.56 (≈ 2.46 µM)	0.78 (≈ 1.23 µM)	3.13 (≈ 4.93 µM)	3.13 (≈ 4.93 µM)	3.13 (≈ 4.93 µM)
O=C(O)C1=C(CSc2ccc(O)nn2)CSC2C(NC(=O)C(NC(=O)c3cnc4cccnc4c3O)c3ccc(O)cc3)C(=O)N12 (stereo not drawn) [Example 170]	6.25 (≈ 9.45 µM)	0.1 (≈ 0.151 µM)	25 (≈ 37.8 µM)	1.56 (≈ 2.36 µM)	0.78 (≈ 1.18 µM)	3.13 (≈ 4.73 µM)	6.25 (≈ 9.45 µM)	6.25 (≈ 9.45 µM)
O=C(O)C1=C(CSc2nncs2)CSC2C(NC(=O)C(NC(=O)c3cnc4cccnc4c3O)c3ccc(O)c(O)c3)C(=O)N12 (stereo not drawn) [Example 171]	12.5 (≈ 18.7 µM)	0.2 (≈ 0.3 µM)	25 (≈ 37.4 µM)	1.56 (≈ 2.34 µM)	1.56 (≈ 2.34 µM)	3.13 (≈ 4.69 µM)	3.13 (≈ 4.69 µM)	3.13 (≈ 4.69 µM)
COc1cnc2c(O)c(C(=O)NC(C(=O)NC3C(=O)N4C(C(=O)O)=C(CSc5nnnn5C)CSC34)c3ccc(O)cc3)cnc2n1 (stereo not drawn) [Example 172]	12.5 (≈ 18.4 µM)	0.78 (≈ 1.15 µM)	25 (≈ 36.7 µM)	3.13 (≈ 4.6 µM)	0.78 (≈ 1.15 µM)	6.25 (≈ 9.18 µM)	3.13 (≈ 4.6 µM)	6.25 (≈ 9.18 µM)
